Experimental data from ChEMBL document CHEMBL1201862, “PubChem BioAssay data set” (2004).
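Results reflect a 48-hour exposure of cells in 96-well plates to compound at five concentrations. At the GI50, growth is halved.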 Activity calls are given as the source filed them. Rule as the data show it: active = GI50 up to about 1.1 µM and inactive = higher.

Assays:
Experiment in all cases: NCI anticancer screen, dose series, 48 h
[1] = system: NCI-H23
[2] = system: HOP-62
[3] = system: UACC-62
[4] = system: HL-60
[5] = system: SR
[6] = system: SF-268
[7] = system: LOX IMVI
[8] = system: IGROV-1
[9] = system: OVCAR-3
[10] = system: SK-MEL-28
[11] = system: SF-295
[12] = system: ACHN
[13] = system: HCT-15
[14] = system: UO-31
[15] = system: HCC 2998
[16] = system: U-251
[17] = system: SNB-19
[18] = system: OVCAR-4
[19] = system: SF-539
[20] = system: NCI-H522

Row | SMILES | GI50 [1] | GI50 [2] | GI50 [3] | GI50 [4] | GI50 [5] | GI50 [6] | GI50 [7] | GI50 [8] | GI50 [9] | GI50 [10] | GI50 [11] | GI50 [12] | GI50 [13] [µM] | GI50 [14] | GI50 [15] | GI50 [16] | GI50 [17] | GI50 [18] | GI50 [19] | GI50 [20]
1 | COc1cc2c(cc1OC)C(C1(O)CCCCC1)NCC2 (configuration not stated) | > 100 µM (inactive) | > 100 µM (inactive) | > 100 µM (inactive) | > 100 µM (inactive) | > 100 µM (inactive) | > 100 µM (inactive) | > 100 µM (inactive) | > 100 µM (inactive) | > 100 µM (inactive) | > 100 µM (inactive) | > 100 µM (inactive) | > 100 µM (inactive) | > 100 | > 100 µM (inactive) | > 100 µM (inactive) | > 100 µM (inactive) |  |  |  | 
2 | CC(C)(C)OC(=O)NCC(=O)NC1c2ccsc2/C(=N/O)[C@H]1O (some centres not stated) | > 100 µM (inactive) | > 100 µM (inactive) | > 100 µM (inactive) | > 100 µM (inactive) | > 100 µM (inactive) |  | > 100 µM (inactive) | > 100 µM (inactive) | > 100 µM (inactive) | > 100 µM (inactive) | > 100 µM (inactive) |  | > 100 | > 100 µM (inactive) | 93.3 µM (inactive) | > 100 µM (inactive) | > 100 µM (inactive) | > 100 µM (inactive) | > 100 µM (inactive) | 
3 | Cc1cc2c(C)nn(Cc3ccc(Cl)cc3)c2c(C#N)c1C | > 100 µM (inactive) | > 100 µM (inactive) | > 100 µM (inactive) | > 100 µM (inactive) | > 100 µM (inactive) | > 100 µM (inactive) |  | > 100 µM (inactive) | > 100 µM (inactive) | > 100 µM (inactive) | 46.2 µM (inactive) | > 100 µM (inactive) | > 100 | > 100 µM (inactive) | > 100 µM (inactive) | > 100 µM (inactive) | 63.5 µM (inactive) |  | > 100 µM (inactive) | 
4 | C=C(c1ccccc1)c1cc2c(=O)[nH]ccc2n1C | 30.1 µM (inactive) | 25 µM (inactive) | 28.5 µM (inactive) | 16.3 µM (inactive) |  | 33.3 µM (inactive) | 37.2 µM (inactive) | 44.4 µM (inactive) | 24.8 µM (inactive) | 44.7 µM (inactive) | 29.9 µM (inactive) | 35.7 µM (inactive) | 27.3 | 18.5 µM (inactive) | 35 µM (inactive) |  | 48 µM (inactive) | 35.5 µM (inactive) |  | 16.3 µM (inactive)
5 | COCCOCOc1ccc(OCc2ccccc2)cc1 | > 71 µM (inactive) | > 100 µM (inactive) | > 100 µM (inactive) | 22.5 µM (inactive) |  | > 100 µM (inactive) | > 100 µM (inactive) | > 100 µM (inactive) | > 100 µM (inactive) | > 100 µM (inactive) | > 100 µM (inactive) |  | > 100 | > 100 µM (inactive) | > 82.6 µM (inactive) | > 85.9 µM (inactive) | > 100 µM (inactive) | 35.7 µM (inactive) | > 100 µM (inactive) | 
6 | CSc1nc(N)c2c(-c3ccccc3)c3c(nc2n1)CCCC3 | > 100 µM (inactive) | 98.4 µM (inactive) | > 100 µM (inactive) | > 100 µM (inactive) | > 100 µM (inactive) | > 10 µM (inactive) | > 100 µM (inactive) | > 100 µM (inactive) | > 100 µM (inactive) | > 100 µM (inactive) | > 100 µM (inactive) | > 100 µM (inactive) | > 100 | 3.38 µM (inactive) |  | > 100 µM (inactive) | > 100 µM (inactive) | 29.6 µM (inactive) | 13.4 µM (inactive) | 
7 | O=C(NO)c1coc2ccccc2c1=O | > 100 µM (inactive) |  | > 100 µM (inactive) | 75.2 µM (inactive) |  | 91.2 µM (inactive) | > 100 µM (inactive) | > 100 µM (inactive) |  | > 100 µM (inactive) | > 100 µM (inactive) | 23.7 µM (inactive) | > 100 | 86.9 µM (inactive) | 32.7 µM (inactive) | > 100 µM (inactive) | 84.9 µM (inactive) | > 100 µM (inactive) | 78.5 µM (inactive) | > 100 µM (inactive)
8 | COc1cc2c(cc1Oc1ccc(OC)c3c1CC1c4c(cc(OC)c(OC)c4-3)CCN1C)CC1c3c(cc(OC)c(OC)c3-2)CCN1C (configuration not stated) | 10.7 µM (inactive) | 17.1 µM (inactive) | 1.97 µM (inactive) | 0.968 µM (active) |  | 2.33 µM (inactive) | 0.234 µM (active) | 3.86 µM (inactive) | 4.95 µM (inactive) | 1.82 µM (inactive) | 2.54 µM (inactive) |  | 2.02 | 3.88 µM (inactive) | 2.41 µM (inactive) | 1.79 µM (inactive) | 5.69 µM (inactive) | 2.74 µM (inactive) | 1.72 µM (inactive) | 2.09 µM (inactive)
9 | CC(=O)ON1C(=O)c2cccc3cccc(c23)C1=O | 10.4 µM (inactive) | 22.8 µM (inactive) | 19.9 µM (inactive) | 10.9 µM (inactive) |  | 22.6 µM (inactive) | 14.2 µM (inactive) | 7.28 µM (inactive) | 19.5 µM (inactive) | 17.9 µM (inactive) | 20.9 µM (inactive) | 28.4 µM (inactive) | 18 | 6.27 µM (inactive) | 31.6 µM (inactive) | 14.8 µM (inactive) | 36.8 µM (inactive) | 11.7 µM (inactive) | 16.4 µM (inactive) | 14.6 µM (inactive)
10 | CN(C)c1nc(N(C)C)nc(N(C)CN(C)c2ccccc2)n1 | > 100 µM (inactive) |  | > 100 µM (inactive) | > 100 µM (inactive) |  | > 100 µM (inactive) | > 100 µM (inactive) | > 100 µM (inactive) | > 100 µM (inactive) | > 100 µM (inactive) | > 100 µM (inactive) | > 100 µM (inactive) | > 100 | > 100 µM (inactive) | 64.4 µM (inactive) | > 100 µM (inactive) | > 100 µM (inactive) | > 100 µM (inactive) | > 100 µM (inactive) | > 100 µM (inactive)
11 | Cc1cc(C)n2c(-c3ccccc3)c(C)cc2n1 | 41.1 µM (inactive) | 53.7 µM (inactive) | 28.2 µM (inactive) | 5.68 µM (inactive) |  | > 100 µM (inactive) | 65 µM (inactive) | 66.2 µM (inactive) | 25.6 µM (inactive) | > 100 µM (inactive) | 48 µM (inactive) | 95.7 µM (inactive) | 16.7 | 34.9 µM (inactive) | 34.8 µM (inactive) | 34 µM (inactive) | 52.2 µM (inactive) | 73.3 µM (inactive) | 24.3 µM (inactive) | 21.2 µM (inactive)
12 | Cc1ccccc1-c1nc2c(C(=O)NCCN(C)C)cccc2[nH]1 | 57.7 µM (inactive) | 31.5 µM (inactive) | 40.3 µM (inactive) | 26.5 µM (inactive) |  | 50.7 µM (inactive) | 38.3 µM (inactive) | 58.5 µM (inactive) | 65.6 µM (inactive) | > 93.3 µM (inactive) | 34.1 µM (inactive) |  | 43.8 | 20 µM (inactive) | 40.3 µM (inactive) | 34.5 µM (inactive) | 48.6 µM (inactive) | 49.1 µM (inactive) | 41.4 µM (inactive) | 59.3 µM (inactive)
13 | NNc1nnc(CCCCCCCCc2nnc(NN)n2N)n1N | 97.7 µM (inactive) | 37.2 µM (inactive) |  | 24.4 µM (inactive) |  | 43.3 µM (inactive) | 21.4 µM (inactive) | 55.3 µM (inactive) |  | > 100 µM (inactive) | 76.9 µM (inactive) | > 100 µM (inactive) | > 100 | > 100 µM (inactive) | 33.3 µM (inactive) | 16.9 µM (inactive) | 64.3 µM (inactive) | > 100 µM (inactive) | > 100 µM (inactive) | 38.7 µM (inactive)
14 | Cc1nn(-c2ccccc2)c(-c2ccccc2[N+](=O)[O-])c1CC#N | 87.7 µM (inactive) | > 100 µM (inactive) | 78.5 µM (inactive) | 69.5 µM (inactive) |  | > 100 µM (inactive) | > 100 µM (inactive) | > 100 µM (inactive) | 62.1 µM (inactive) | > 100 µM (inactive) | > 100 µM (inactive) | > 100 µM (inactive) | > 100 | 82.2 µM (inactive) | > 100 µM (inactive) |  | > 100 µM (inactive) | > 100 µM (inactive) | > 100 µM (inactive) | 22.2 µM (inactive)
15 | CCOC(=O)C1=C(Nc2cccc(OC)c2)OCC1=O | > 100 µM (inactive) | > 100 µM (inactive) | > 100 µM (inactive) | > 100 µM (inactive) | > 100 µM (inactive) | > 100 µM (inactive) | > 100 µM (inactive) | > 100 µM (inactive) |  | > 100 µM (inactive) | > 100 µM (inactive) | > 100 µM (inactive) | > 100 | > 100 µM (inactive) | > 100 µM (inactive) | > 100 µM (inactive) | > 100 µM (inactive) | > 100 µM (inactive) | > 100 µM (inactive) | 
16 | O=C1OC(c2ccc(O)c(F)c2)(c2ccc(O)c(F)c2)c2cccc3cccc1c23 | > 25 µM (inactive) | > 25 µM (inactive) | 17.5 µM (inactive) | 5.57 µM (inactive) | 8.04 µM (inactive) | > 25 µM (inactive) | > 25 µM (inactive) | > 25 µM (inactive) | 5.9 µM (inactive) | 0.0643 µM (active) | 23.2 µM (inactive) | > 25 µM (inactive) | > 25 | > 25 µM (inactive) |  | > 25 µM (inactive) | > 25 µM (inactive) | 0.0601 µM (active) | > 25 µM (inactive) | 
